Values after ≈ are worked out from the molar mass of the structure shown.
What was measured:
[1] = Metabolic stability in human liver microsomes assessed as compound degradation measured after 30 mins; assay type: ADME, Microsome; details: read-out: Drug degradation
[2] = Inhibition of mouse KHK-A
[3] = Inhibition of mouse KHK-C
[4] = Thermodynamic solubility of the compound […] at pH 7.4; assay type: physicochemical; details: read-out: Therm_solubility
Ketohexokinase [5] = target: T1, Ketohexokinase (Homo sapiens, UniProt P50053); test: Inhibition of KHK in human HepG2 cells incubated for 3 hrs by Rapidfire MS analysis; assay type: cell-based
T1 sequence (P50053 whole entry): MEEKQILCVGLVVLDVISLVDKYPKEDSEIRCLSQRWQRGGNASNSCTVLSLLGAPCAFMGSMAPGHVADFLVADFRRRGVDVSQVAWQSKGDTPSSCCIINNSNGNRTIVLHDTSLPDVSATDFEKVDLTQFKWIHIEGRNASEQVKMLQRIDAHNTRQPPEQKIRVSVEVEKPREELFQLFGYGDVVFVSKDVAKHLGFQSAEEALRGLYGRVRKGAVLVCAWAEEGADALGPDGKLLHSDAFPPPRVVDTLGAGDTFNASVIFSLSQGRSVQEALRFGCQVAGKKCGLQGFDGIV

[6] = Metabolic stability in mouse liver microsomes assessed as compound degradation measured after 30 mins; assay type: ADME, Microsome; details: read-out: Drug degradation
[7] = Metabolic stability in dog liver microsomes assessed as compound degradation measured after 30 mins; assay type: ADME, Canis lupus familiaris, Microsome; details: read-out: Drug degradation
[8] = Metabolic stability in rat liver microsomes assessed as compound degradation measured after 30 mins; assay type: ADME, Microsome; details: read-out: Drug degradation
Hepatocyte = test: Cytotoxicity against rat Primary hepatocyte; assay type: toxicity, cell-based; details: hepatocytes
Ketohexokinase [9] = target: T1, Ketohexokinase; test: Inhibition of human KHK-A preincubated for 15 mins followed by substrate addition and measured after 20 mins in presence of ATP by Rapidfire MS analysis
Ketohexokinase [10] = target: T1, Ketohexokinase; test: Inhibition of human KHK-C preincubated for 15 mins followed by substrate addition and measured after 20 mins in presence of ATP by Rapidfire MS analysis
[11] = Clearance in dog hepatocytes measured per 10^6 cells; assay type: ADME, cell-based, Canis lupus familiaris, Hepatocyte; details: read-out: CLH
[12] = Volume of distribution in rat at 1 mg/kg, iv measured after 12 hrs; assay type: ADME, organism-based; details: in vivo
[13] = Half life in rat at 1 mg/kg, iv measured after 12 hrs; assay type: ADME, organism-based; details: in vivo
[14] = Clearance in rat hepatocytes measured per 10^6 cells; assay type: ADME, cell-based, Hepatocyte; details: read-out: CLH
[15] = Clearance in rat at 1 mg/kg, iv measured after 12 hrs; assay type: ADME, organism-based; details: in vivo
[16] = Cmax in rat at 1 mg/kg, iv measured after 12 hrs; assay type: ADME, organism-based; parameters: dose 1 mg/kg, time 12 hrs, route iv; details: in vivo
[17] = Clearance in human hepatocytes measured per 10^6 cells; assay type: ADME, cell-based, Hepatocyte; details: read-out: CLH
[18] = AUC in rat at 1 mg/kg, iv measured after 12 hrs; assay type: ADME, organism-based; parameters: time 12 hrs, dose 1 mg/kg, route iv; details: in vivo
[19] = Permeability in MDCK cells assessed as drug transport measured over 1 hr in presence of P-gp; assay type: ADME, cell-based, Canis lupus familiaris; details: dog

CC(=O)N1CCC(n2cc(-c3cc(C(F)(F)F)c(C#N)c(N4CC[C@@H]4C)n3)cn2)CC1
metabolised at 0.5 h [1]: 45%
IC50 [2]: 19 nM
IC50 [3]: 45 nM
solubility thermodynamic [4]: 7 µg/mL (≈ 16.2 µM)
IC50 (Ketohexokinase [5]): 96 nM
metabolised at 0.5 h [6]: 66%
metabolised at 0.5 h [7]: 32%
metabolised at 0.5 h [8]: 30%

C[C@H]1CCN1c1nc(-c2cnn(C3CCN(CCO)CC3)c2)cc(C(F)(F)F)c1C#N
LC20 (Hepatocyte): 17000 nM
metabolised at 0.5 h [1]: 26%
IC50 [3]: 8 nM
IC50 (Ketohexokinase [9]): 4 nM
solubility thermodynamic [4]: 38 µg/mL (≈ 87.5 µM)
IC50 (Ketohexokinase [5]): 15 nM
metabolised at 0.5 h [6]: 32%
metabolised at 0.5 h [7]: 57%
IC50 (Ketohexokinase [10]): 6 nM
metabolised at 0.5 h [8]: 38%

C[C@H]1CCN1c1nc(-c2cnn(CC(=O)N3C[C@@H](O)[C@H](O)C3)c2)cc(C(F)(F)F)c1C#N
LC20 (Hepatocyte): > 50000 nM
metabolised at 0.5 h [1]: 52%
hepatocyte CLint [11]: 1.9 µL/min/1e6 cells
Vd [12]: 3.3 L/kg
IC50 [2]: 7 nM
half-life [13]: 0.6 h
hepatocyte CLint [14]: 2.2 µL/min/1e6 cells
IC50 [3]: 8 nM
clearance [15]: 71 mL/min/kg
Cmax [16]: 1830 nM
hepatocyte CLint [17]: 6.1 µL/min/1e6 cells
AUC at 12 h [18]: 0.53 µM·h
solubility thermodynamic [4]: 19 µg/mL (≈ 42.2 µM)
IC50 (Ketohexokinase [5]): 109 nM
metabolised at 0.5 h [6]: 13%
Drug transport [19]: 0.5%
metabolised at 0.5 h [7]: 2%
metabolised at 0.5 h [8]: 0%

C[C@H]1CCN1c1nc(-c2cnn(C3CCNCC3)c2)cc(C(F)(F)F)n1
LC20 (Hepatocyte): 23000 nM
metabolised at 0.5 h [1]: 2%
IC50 [2]: 52 nM
IC50 [3]: 159 nM
IC50 (Ketohexokinase [9]): 8 nM
solubility thermodynamic [4]: 410 µg/mL (≈ 1120 µM)
IC50 (Ketohexokinase [5]): 26 nM
metabolised at 0.5 h [6]: 8%
metabolised at 0.5 h [7]: 15%
IC50 (Ketohexokinase [10]): 15 nM
metabolised at 0.5 h [8]: 17%

C[C@H]1CCN1c1nc(-c2cnn(C3CCN(C)CC3)c2)cc(C(F)(F)F)c1C#N
metabolised at 0.5 h [1]: 11%
IC50 [2]: 4 nM
IC50 [3]: 14 nM
IC50 (Ketohexokinase [9]): 7 nM
solubility thermodynamic [4]: 11 µg/mL (≈ 27.2 µM)
IC50 (Ketohexokinase [5]): 20 nM
metabolised at 0.5 h [6]: 86%
metabolised at 0.5 h [7]: 36%
IC50 (Ketohexokinase [10]): 6 nM
metabolised at 0.5 h [8]: 33%

C[C@H]1CCN1c1nc(-c2cnn(C3CCOCC3)c2)cc(C(F)(F)F)c1C#N
LC20 (Hepatocyte): > 50000 nM
metabolised at 0.5 h [1]: 49%
IC50 [2]: 40 nM
IC50 [3]: 61 nM
IC50 (Ketohexokinase [9]): 33 nM
solubility thermodynamic [4]: 31 µg/mL (≈ 79.2 µM)
IC50 (Ketohexokinase [5]): 118 nM
metabolised at 0.5 h [6]: 98%
metabolised at 0.5 h [7]: 98%
IC50 (Ketohexokinase [10]): 38 nM
metabolised at 0.5 h [8]: 98%

C[C@H]1CCN1c1nc(-c2cnn(CC(=O)N(CCO)CCO)c2)cc(C(F)(F)F)c1C#N
LC20 (Hepatocyte): > 50000 nM
metabolised at 0.5 h [1]: 27%
hepatocyte CLint [11]: 2.6 µL/min/1e6 cells
Vd [12]: 4.8 L/kg
IC50 [2]: 16 nM
half-life [13]: 2.4 h
hepatocyte CLint [14]: 6.1 µL/min/1e6 cells
IC50 [3]: 35 nM
clearance [15]: 23 mL/min/kg
Cmax [16]: 2940 nM
hepatocyte CLint [17]: 43 µL/min/1e6 cells
AUC at 12 h [18]: 1.59 µM·h
solubility thermodynamic [4]: 28 µg/mL (≈ 61.9 µM)
IC50 (Ketohexokinase [5]): 102 nM
metabolised at 0.5 h [6]: 30%
Drug transport [19]: 2%
metabolised at 0.5 h [7]: 16%
metabolised at 0.5 h [8]: 9%

C[C@H]1CCN1c1nc(-c2cnn(C3CNC3)c2)cc(C(F)(F)F)n1
LC20 (Hepatocyte): 48000 nM
metabolised at 0.5 h [1]: 7%
hepatocyte CLint [11]: 4.4 µL/min/1e6 cells
IC50 [2]: 13 nM
hepatocyte CLint [14]: 11 µL/min/1e6 cells
IC50 [3]: 3 nM
IC50 (Ketohexokinase [9]): 4 nM
hepatocyte CLint [17]: 2.5 µL/min/1e6 cells
solubility thermodynamic [4]: 450 µg/mL (≈ 1330 µM)
IC50 (Ketohexokinase [5]): 6 nM
metabolised at 0.5 h [6]: 21%
Drug transport [19]: 12%
metabolised at 0.5 h [7]: 20%
IC50 (Ketohexokinase [10]): 5 nM
metabolised at 0.5 h [8]: 11%

Reference: ChEMBL document CHEMBL5375962 (J Med Chem, 2023)
